{"source": "patent US20110294874A1", "about": "“DIAGNOSIS AND THERAPY OF ORGAN DYSFUNCTION USING SPHINGANINE-1-PHOSPHATE” (The Trustees of Columbia University in the City of New York, priority 2008, published 2011)", "key": {"[1]": {"system": "C57BL/6 mice subjected to liver IR", "experiment": "Apoptosis (TUNEL, DNA laddering, caspase 3) and F-actin (phalloidin) in liver and kidney after liver IR", "assay_type": "in vivo, mouse", "procedure": "Mice were anesthetized with intraperitoneal pentobarbital (50 mg/kg or to effect). Mice were placed under a heating lamp and on a 37° C. heating pad. After a midline laparotomy and intraperitoneal application of 20 U heparin, left lateral and median lobes of the liver were subjected to ischemia with a microaneurysm clip occluding the hepatic triad above the bifurcation. This method of partial hepatic ischemia results in a segmental (˜70%) hepatic ischemia but spares the right lobe of the liver and prevents mesenteric venous congestion by allowing portal decompression throughout the right and caudate lobes of the liver. The liver was then repositioned in the peritoneal cavity in its original location for 60 minutes. The liver was kept moist with gauze soaked in 0.9% normal saline. The body temperature was monitored by an infrared temperature sensor (Linear Laboratories, Fremont, Calif.) every 10 min. and maintained at 37° C. using a heating lamp and a heating pad. After 60 minutes, the liver was reperfused and the wound closed. Sham-operated mice were subjected to laparotomy and identical liver manipulations without vascular occlusion. Two, 4 and 24 hr after reperfusion, plasma was collected for the measurement of alanine aminotransferase (ALT), a common indicator of liver damage, as well as creatinine (Cr) a common indicator of kidney damage. The liver tissue subjected to IR was collected to measure percent liver necrosis (2, 4 and 24 hr after IR), neutrophil infiltration (with immunohistochemistry, 4 and 24 hr after IR), apoptosis (with terminal deoxynucleotidyl transferase-mediated dUTP nick end labeling staining, caspase 3 immunoblotting and DNA laddering, 24 hr after IR), and inflammation by RT-PCR for pro-inflammatory mRNAs (4 hr after IR).\nApoptosis was detected in both liver and kidney taken from mice subjected to liver IR, through TUNEL staining, DNA laddering and caspase 3 fragmentation."}, "[2]": {"system": "SK1 KO mice subjected to liver IR", "experiment": "Liver IR in SK1 KO mice: plasma ALT and creatinine", "assay_type": "in vivo, mouse", "settings": "SK1KO, hepatic IR 24 h", "procedure": "The effects of administering Sg1P (0.1 mg/kg i.v. and 0.2 mg/kg s.c.) on liver and renal injury were also determined in the KO mice and are also shown in Tables 9 and 10 below."}, "[3]": {"system": "C57BL/6 mice subjected to liver IR", "experiment": "Kidney H&E histology after liver IR", "assay_type": "in vivo, mouse", "settings": "vs vehicle-treated controls", "from_the_text": "Liver IR-induced AKI in mice shared similar histological changes observed in human AKI associated with liver failure, as observed in H&E slides of kidney sections taken from the mice (see FIG. 3). Multifocal acute tubular injury including individual cell necrosis involving the juxtamedullary proximal tubules of the S3 segment was observed. […] Endothelial apoptosis of peritubular capillaries was also visible in H&E sections as linear arrays of apoptotic bodies corresponding to the interstitial capillary lining endothelium. […] The number of glomeruli with detectable juxtaglomerular apparatus and the number of cells per juxtaglomerular apparatus were both increased after liver IR, indicating hyperplasia of the juxtaglomerular apparatus. […] Liver IR produced large necrotic areas of liver tissue. The average percentage of necrotic areas in liver samples taken from liver IR mice were 92%±2% (n=6), while no necrosis was found in sham-operated mice. Livers were also analyzed for the degree of hepatocellular damage."}, "[4]": {"system": "C57BL/6 mice subjected to liver IR", "experiment": "Murine model of liver ischemia reperfusion (hepatic IR): plasma ALT and creatinine", "assay_type": "in vivo, mouse"}, "[5]": {"system": "human epithelial HK-2 cell line", "experiment": "Kinase phosphorylation and HSP27 expression in HK-2 cells", "assay_type": "cell-based", "settings": "HK-2 (data not shown)", "from_the_text": "As shown above, Sg1P protects human endothelial cells, and does so through the same mechanism as shown in mouse tissue."}, "IHUVEC monolayers": {"system": "IHUVEC monolayers", "experiment": "Evans blue dye-albumin permeability of IHUVEC monolayers", "assay_type": "cell-based, human", "procedure": "IHUVEC—immortalized human umbilical vein endothelial cells (ATCC, P.O. Box 1549 Manassas, Va. 20108) or HRGEC—human renal glomerular endothelial cells (ScienCell Research Laboratories, 6076 Corte Del Cedro Carlsbad, Calif. 92011) were cultured within a humidified atmosphere of 5% CO2 in air and grown to confluence. When confluent, the cells were trypsinized and seeded onto 0.45 μm pore size polycarbonate filters at the base of inserts of 6.5 mm diameter Transwell chambers and cultured until confluence.\nHuman endothelial cell permeability was assessed with the Evans blue dye extravasation assay (Awad et al., 2006). The permeability characteristics of the resulting confluent monolayers were assessed by following the diffusion of albumin-conjugated Evan's blue dye from the upper to lower compartments of the Transwell chambers. After addition of dye, chambers were shaken and allowed to equilibrate for 10-30 min at 37° C. After equilibration, stimuli were added and dye levels in lower compartments intermittently assayed by spectrophotometric analysis.\nThe addition of TNF-α or thrombin induces apoptosis and increases cell permeability in cultured endothelial cells."}, "[6]": {"settings": "0.2 mg/kg i.v. 2 hours post-reperfusion"}, "[7]": {"settings": "C57BL/6 mice, 60 min liver ischemia, 24 h reperfusion"}, "[8]": {"settings": "single dose 0.1 mg/kg i.v. immediately before reperfusion"}, "[9]": {"settings": "single dose 0.2 mg/kg s.c. two hours after reperfusion"}}, "note": "“And” between values parts separate entries of the source, which are not always exact repeats. Identical values can stand only once."}
{"smiles": "CCCCCCCCCCCCCCC[C@@H](O)[C@@H](N)COP(=O)(O)O", "note": "[Sg1P, sphinganine-1-phosphate]", "values": [{"measurement": "Caspase 3 fragmentation in liver and kidney", "setting": "[1]", "value": "significantly reduced"}, {"measurement": "TUNEL staining, DNA laddering in liver and kidney", "setting": "[1]", "value": "significantly reduced"}, {"measurement": "F-actin structure in liver and kidney (phalloidin)", "setting": "[1]; vs vehicle", "value": "better-preserved F-actin structure"}, {"measurement": "Creatinine (mean)", "setting": "[2]", "value": 0.709, "unit": "mg/dL"}, {"measurement": "ALT (mean)", "setting": "[2]; 0.1 mg/kg i.v. and 0.2 mg/kg s.c.", "value": 9602.01, "unit": "U/L"}, {"measurement": "Indications of AKI in kidney H&E slides", "setting": "[3]", "value": "significantly less indications of AKI"}, {"measurement": "ALT (liver protection)", "setting": "[4]; [6]", "value": "12063±593", "unit": "U/L"}, {"measurement": "Creatinine (kidney protection)", "setting": "[4]; [6]", "value": "0.93 ± 0.05", "unit": "mg/dL"}, {"measurement": "Serum ALT (mean)", "setting": "[4]; [7]", "value": "7474±557 U/L and 7474 U/L"}, {"measurement": "Serum creatinine (mean)", "setting": "[4]; [7]", "value": "0.528 ± 0.07 mg/dL and 0.55 mg/dL"}, {"measurement": "Most effective dose for treating both kidney and liver failure", "setting": "[4]; dose response 0.01-1.0 mg/kg i.v. prior to reperfusion plus double dose s.c. 2 h after, serum creatinine and ALT", "value": "0.1 mg/kg i.v. prior to reperfusion followed by 0.2 mg/kg s.c. 2 hours after reperfusion"}, {"measurement": "Reduction in the severity of liver injury (change in ALT levels)", "setting": "[4]; non-nephrectomized mice", "value": 50, "unit": "%"}, {"measurement": "ALT", "setting": "[4]; [8]", "value": "7197±753", "unit": "U/L"}, {"measurement": "Cr", "setting": "[4]; [8]", "value": "0.58 ± 0.06", "unit": "mg/dL"}, {"measurement": "ALT", "setting": "[4]; [9]", "value": "14762±1732", "unit": "U/L"}, {"measurement": "Cr", "setting": "[4]; [9]", "value": "0.98 ± 0.06", "unit": "mg/dL"}, {"measurement": "Phosphorylation of ERK/MAPK, Akt, HSP27 and HSP27 expression", "setting": "[5]", "value": "failed to phosphorylate ERK/MAPK, Akt and HSP27 and also failed to induce HSP27 expression"}, {"measurement": "Thrombin-induced permeability (albumin leak)", "setting": "IHUVEC monolayers; 5 U/ml thrombin", "value": "same cytoprotective effect"}, {"measurement": "TNF-α-induced permeability (albumin leak)", "setting": "IHUVEC monolayers; TNF-α 50 ng/ml or 100 ng/ml, concurrent Sg1P", "value": "reduced the permeability of the cells to levels comparable to control"}]}
